In one test the test system is jimsonweed. As to conditions: 0.05 kg/ha; cited from earlier work.
The test system of test [1] is weeds in seedling alfalfa. Description: Field trial in seedling alfalfa, Brawley, Calif.: percent weed control (burndown), 0 to 100% visual scale. The format is in vivo. As to conditions: for Percent Weed Control (Burndown), mean: single application on seedling alfalfa, use rates of Table 5, 4 replicates; for Overall weed control (higher % control and lower weed densities), in words: all rating dates 6-34 DAA. From the text: (§1) The objective of this study was to evaluate the performance of PRONAMIDE and IMAZETHAPYR in commercial alfalfa hay production in Brawley, Calif. Trial treatments applied were as follows:
(§2) Treatments were applied on seedling alfalfa on March 14th at second to third trifoliate stage (3-4 inches tall). Treatment applications were made using a research CO2 backpack sprayer calibrated to deliver 50 gallons of solution per acre operating at 30 PSI. Weeds on the plots were on average 2-3 inches tall. Weather conditions during application were 34.3% RH, air and soil temperatures were 68° F. and 56.3° F. respectively, and soil moisture was dry.
(§3) Trial was rated at 6, 13, 20, 27 and 34 days after product application (DAA). On each rating date, Percent phytotoxicity and weed control based on a 0 to 100% visual scale, and weed density (number of weeds counted on 3 square yard quadrats) per plot were conducted.
(§4) Data was checked for normality assumptions and analyzed using a univariate Analysis of Variance, and the Least Significant Difference (LSD) mean separation test at a significance level of (α=0.1). Significant differences (p<0.1) were found for the dependent variables assessed at all rating dates (See ANOVA tables). Overall, treatments 5 (Raptor 4), 4 (PRONAMIDE and IMAZETHAPYR) and treatment 3 (WW2019-2) consistently provided the best control (higher % control and lower weed densities). Treatment efficacy as evidenced by % burndown (percent control was higher than 70% in all treatments 3-5) and weed counts (remained steady or declined up to this rating date) peaked at 27 DAA and subsequently declined (weed counts increased and percent control declined) at 34 DAA.

The subject of a further test is velvetleaf. The following applies: 0.10 kg/ha, regardless of the application method; cited from earlier work.
The next test relates to smooth pigweed. As to conditions: 0.05 to 0.14 kg ai/ha, regardless of application method or herbicide rate; cited from earlier work.
Test [2] has as its system weeds in seedling alfalfa. The test is described as follows: Field trial in seedling alfalfa, Brawley, Calif.: weed density (weeds counted on square yard quadrats). It counts as in vivo. The following applies: use rates of Table 5.
Text: as §1, §2, §3, §4

Consider `CCc1cnc(C2=NC(C)(C(C)C)C(=O)N2)c(C(=O)O)c1` (centres unmarked) [IMAZETHAPYR, 2-[4,5-dihydro-4-methyl-4-(1-methylethyl)-5-oxo-1H-imidazol-2-yl]-5-ethyl-3-pyridinecarboxylic acid], for which, in the test on jimsonweed, the “Control of jimsonweed, better postemergence compared to soil applications” value is listed as 30%. The “Percent Weed Control (Burndown), mean” value was 28% in test [1] (6 DA-A); 33% in test [1] (13 DA-A); 75% in test [1] (20 DA-A); 79% in test [1] (27 DA-A); 38% in test [1] (34 DA-A). The “Overall weed control (higher % control and lower weed densities), in words” value is “good weed control” in test [1] (listed as Treatment 3) and “best control” in test [1] (listed as WW2019-2). For the same molecule, the Control of velvetleaf in the test with velvetleaf is given as no less than 90%. For the same molecule, the “Control of smooth pigweed” value in the test with smooth pigweed was no less than 90%. Besides, the “Weed Density, mean” value is listed as 35 Weeds per yd^2 in test [2] (6 DA-A); 25 Weeds per yd^2 in test [2] (13 DA-A); 29 Weeds per yd^2 in test [2] (20 DA-A); 24 Weeds per yd^2 in test [2] (27 DA-A); 39 Weeds per yd^2 in test [2] (34 DA-A).
Regarding `C#CC(C)(C)NC(=O)c1cc(Cl)cc(Cl)c1` [PRONAMIDE, 3,5-dichloro-n-(1,1-dimethyl-2-propynyl) benzamide], the “Percent Weed Control (Burndown), mean” value worked out at 15% in test [1] (6 DA-A); 20% in test [1] (13 DA-A); 38% in test [1] (20 DA-A); 25% in test [1] (27 DA-A); 8% in test [1] (34 DA-A). Besides, the “Overall weed control (higher % control and lower weed densities), in words” value in test [1] is “less beneficial weed control”. Besides, the “Weed Density, mean” value in test [2] (6 DA-A) was found to be 51 Weeds per yd^2; in test [2] (13 DA-A), 41 Weeds per yd^2; in test [2] (20 DA-A), 42 Weeds per yd^2; in test [2] (27 DA-A) it was 43 Weeds per yd^2; in test [2] (34 DA-A) it was 81 Weeds per yd^2.
